# Experiments:
# [1] = tested on: human vein endothelial cells (HUVECs); test: In vitro angiogenesis model (HUVEC rearrangement on matrigel, pseudotubule length); assay type: cell-based; details: at a concentration of 10 nM, 24 hours
# Experimental: In vitro Angiogenesis Model
# The products are tested in terms of inducing the rearrangement of human vein endothelial cells (HUVECs) on matrigel (Becton dickinson 356230) diluted in collagen (rat tail collagen, type I: Becton dickinson 354236). After 24 hours, the cells are observed under the microscope with a X4 objective and the length of the pseudotubules is measured by means of an image analyser (BIOCOM-Visiolab 2000 software).
# C57 mice = test: Model of post-ischaemic leg revascularization in mice; assay type: in vivo; details: 30 mg/kg/day administered subcutaneously for 7 days
# Experimental: Model of Post-Ischaemic Leg Revascularization in Mice
# The experiment is carried out on C57 mice (IFFA CREDO France).
# The animals are anaesthetized by intraperitonal injection, in a volume of 10 ml/kg, of a solution of 50 mg/kg ketamine (Ketamine 1000 Virbac®, Virbac Carros France) and 10 mg/kg xylazine (Rompun 2%®, Bayer Pharma Puteaux France). The animal is placed so that it is lying on its back, and after shaving and disinfection of the skin by painting with Vetedine® solution (Vetoquinol S.A. Lure France), an incision is made in the inguinal region. The femoral artery is excized, the collateral arteries are cauterized and the external and circumflex iliac arteries are ligatured. The skin is sutured with separate stitches using non-resorbable thread. The animals are placed in the recovery room, the temperature of which is regulated at 25° C., until they are completely awake.
# The distal perfusion is measured using a laser Doppler scanner (LDPI Lisca Perimed model PIM II, AB Sweden). This technique makes it possible to measure the cutaneous perfusion of the upper part of the back legs. […] Measurements are carried out successively on the healthy leg and on the leg rendered ischaemic in order to establish a perfusion deficit expressed as %. […]
# FGF-R1β-hMp1 = test: Baf/3-FGFR1β proliferation model; assay type: cell-based, murine; details: at a concentration of 30 μM
# Experimental: (§1) Baf/3-FGFR1β or FGF-R4α Proliferation Model
# (§2) Obtaining the Chimeric Receptor Constructs
# (§3) The chimeric receptors are made up of the intracellular portion of hMp1 (NM_005373) and the transmembrane and extracellular domains of FGF-R1β or FGF-R4α.
# (§4) For each FGF receptor, the FGF-R (BamHI-SacI) and hMp1 (SacI-NotI) fragments are simultaneously cloned into the vector pEF6 (Invitrogen) digested with BamHI and NotI.
# (§5) Murine BaF/3 cells are transfected by electroporation. 20 μg of plasmid carrying the constructs FGF-R1β-hMp1 or FGF-R4α-hMp1 are mixed with 5×10^6 cells taken up in 800 μl of RPMI (invitrogen). The mixture is subjected to two electric shocks of 400 V with an interval of 0.1 ms. The cells are taken up for 48 h in an RPMI medium containing 10% FCS (foetal calf serum, gibco), glutamine (invitrogen), NEAA (nonessential amino acids, invitrogen), NaPyr (sodium pyruvate, invitrogen) and 10 ng/ml of IL-3, before being selected with 10 μg/ml of blasticidin (Cayla).
# (§6) Culture of Transfected Cells […]
# (§7) A confluent culture of BaF/3 cells carrying the chimeric receptors is passaged one-in-three in culture medium supplemented with IL-3 (10 ng/ml) for 24 h. […] The plates are incubated for 28 h at 37° C. and then 100 μl of Cell Titer Glo (Promega) are added and the amount of ATP is quantified using a luminometer (Luminoskan Ascent, Labsystems).
# FGF-R4α-hMp1 = test: Baf/3-FGF-R4α proliferation model; assay type: cell-based, murine; details: at a concentration of 30 μM
# Experimental: as §1, §2, §3, §4, §5, §6, §7
structure (smiles),measurement,setting,value
"COc1c(C)c(C(=O)c2ccc(N)c(C(=O)[O-])c2)n2cccc(OCCOCCOCCOCCOCCOCCOc3cccn4c(C(=O)c5ccc(N)c(C(=O)[O-])c5)c(C)c(OC)c34)c12.[Na+].[Na+] [Example 2, disodium salt of 3,3′-{3,6,9,12,15-pentaoxaheptadecane-1,17-diylbis[oxy(1-methoxy-2-methylindolizine-8,3-diyl)carbonyl]}bis(6-aminobenzoic acid)]",activity on the in vitro angiogenesis model,[1],active
"COc1cc(C(=O)c2nc(-c3cccc(C(=O)[O-])c3)c3c(OCCOCCOCCOCCOCCOCCOc4cccn5c(C(=O)c6ccc(N)c(OC)c6)nc(-c6cccc(C(=O)[O-])c6)c45)cccn23)ccc1N.[Na+].[Na+] [Example 8, Disodium salt of 3,3′-(3,6,9,12,15-pentaoxaheptadecane-1,17-diylbis{oxy[3-(4-amino-3-methoxybenzoyl)imidazo[1,5-a]pyridine-8,1-diyl]})dibenzoic acid]",activity on the in vitro angiogenesis model,[1],active
"Cc1c(OCCOCCOCCOCCOCCOCCOCCOc2c(C)c(C(=O)c3ccc(N)c(C(=O)[O-])c3)n3ccccc23)c2ccccn2c1C(=O)c1ccc(N)c(C(=O)[O-])c1.[Na+].[Na+] [Example 21, Disodium salt of 3,3′-{3,6,9,12,15,18-hexaoxaicosane-1,20-diylbis[oxy(2-methylindolizine-1,3-diyl)carbonyl]}bis(6-aminobenzoic acid)]",activity in the ischaemic leg model (post-ischaemic perfusion recovery),C57 mice,significant activity
Cc1c(NC(=O)c2cccc(OCC(=O)NCCNC(=O)COc3cccc(C(=O)Nc4c(C)c(C(=O)c5ccc(N)c(C(=O)[O-])c5)n5ccccc45)c3)c2)c2ccccn2c1C(=O)c1ccc(N)c(C(=O)[O-])c1.[Na+].[Na+] [Example 44],activity on the Baf/3-FGFR1β proliferation,FGF-R1β-hMp1,active
same,activity on the Baf/3-FGF-R4α proliferation,FGF-R4α-hMp1,active
